The record followed here is US20240124504A1, “AROMATIC HETEROCYCLIC COMPOUND, AND PHARMACEUTICAL COMPOSITION AND APPLICATION THEREOF” (GT APEIRON THERAPEUTICS LIMITED, priority 2020, published 2024).

By IC50 is commonly meant the concentration that gives 50% inhibition.

Experiment [1] deals with human breast cancer cells HCC70. Description: Cell biological activity detection (CyQuant, 72 hours), HCC70. The conditions noted are these: Homo sapiens, HCC70, 72 h, incubation for 72 hours. It counts as cell-based. The essentials: (§1)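 A2780 and HCC70 cells seeded at 2000/well in RPMI 1640 + 10% FBS, treated next day with 9-point compound dilutions (top 10 μM, 1:4; 0.2% DMSO) for 72 h at 37 °C. Cell number read by CyQuant Direct nucleic acid stain (ex 488 nm); IC50 from dose–response fit.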

The subject of experiment [2] is ovarian cancer A2780. Briefly: Cell biological activity detection (CyQuant, 72 hours), A2780. It counts as cell-based, human. The conditions noted are these: Homo sapiens, A2780, 72 h, A2780 cells, incubation for 72 hours. The essentials: as §1
Experiment [3] concerns the target T1, CDK12 (aa686-1082)/cyclinK complex (Homo sapiens, UniProt Q9NYV4).
T1 construct: A CDK12 (aa686-1082)/cyclinK complex (50 nM)
Description: In-vitro enzymatic inhibitory activity testing, CDK12 inhibition assay (Caliper EZ Reader II). It counts as biochemical. The conditions noted are these: CDK12/cyclinK 50 nM, 180 min at 27° C.; read-out: CDK12 IC50. The gist of the method: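 Caliper EZ Reader II mobility-shift separation of 5-FAM-CDK9tide substrate (2 μM) from phosphoproduct, using 50 nM CDK12 (aa686-1082)/cyclinK in 80 mM MES pH 6.5, 10 mM MgCl2, 0.01% Tween 20, 50 ug/mL BSA. Compound pre-incubated 10 min with enzyme, then substrate/ATP added for 180 min at 27° C; EDTA stop. IC50 by nonlinear dose-response regression.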

Some results are limits rather than exact numbers.

T1 sequence (Q9NYV4 686-1082, species assumed): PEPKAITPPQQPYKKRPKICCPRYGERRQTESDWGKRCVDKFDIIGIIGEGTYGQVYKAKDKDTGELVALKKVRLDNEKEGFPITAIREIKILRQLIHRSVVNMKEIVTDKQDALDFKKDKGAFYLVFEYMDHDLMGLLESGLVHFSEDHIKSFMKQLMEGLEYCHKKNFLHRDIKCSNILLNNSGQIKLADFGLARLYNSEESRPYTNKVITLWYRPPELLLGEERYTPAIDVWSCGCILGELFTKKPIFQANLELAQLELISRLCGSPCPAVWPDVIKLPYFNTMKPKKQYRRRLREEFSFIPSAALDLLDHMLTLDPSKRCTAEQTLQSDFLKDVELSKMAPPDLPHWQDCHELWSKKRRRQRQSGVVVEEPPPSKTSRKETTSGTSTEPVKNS
T1 sequence (O75909 whole entry partner, species assumed, the tested form may be a part): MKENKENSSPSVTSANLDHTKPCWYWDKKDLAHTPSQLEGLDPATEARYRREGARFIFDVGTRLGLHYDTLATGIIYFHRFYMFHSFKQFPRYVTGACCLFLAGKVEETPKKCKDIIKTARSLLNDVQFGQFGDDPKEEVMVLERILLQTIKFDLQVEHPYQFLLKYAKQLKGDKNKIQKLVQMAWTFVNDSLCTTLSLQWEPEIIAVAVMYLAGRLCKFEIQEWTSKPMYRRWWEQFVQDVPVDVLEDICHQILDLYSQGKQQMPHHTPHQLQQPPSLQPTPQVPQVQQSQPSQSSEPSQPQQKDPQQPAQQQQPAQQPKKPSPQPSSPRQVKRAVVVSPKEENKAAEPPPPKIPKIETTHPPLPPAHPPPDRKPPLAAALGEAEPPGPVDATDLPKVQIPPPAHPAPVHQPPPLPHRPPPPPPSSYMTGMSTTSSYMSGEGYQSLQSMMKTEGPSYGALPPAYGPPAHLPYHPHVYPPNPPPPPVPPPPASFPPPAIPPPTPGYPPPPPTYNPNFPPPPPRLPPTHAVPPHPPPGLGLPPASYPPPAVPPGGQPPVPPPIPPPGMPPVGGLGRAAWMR

Regarding `CP(C)(=O)c1cccc2c(-c3nc(NC4(CO)COC4)ncc3C(F)(F)F)c[nH]c12` [Compound 114, (3-(2-((3-(hydroxymethyl)oxetan-3-yl)amino)-5-(trifluoromethyl)pyrimidin-4-yl)-1H-indole-7-yl)dimethylphosphine oxide], the IC50 was below 20 nM in experiment [1], below 20 nM in experiment [2] and above 50000 nM in experiment [3].
In the case of `CP(C)(=O)c1cccc2c(-c3nc(NCC4CC4CO)ncc3C(F)(F)F)c[nH]c12` (single isomer, unassigned) [Compound 143], the IC50 in experiment [1] was 20 to 200 nM; in experiment [2], 20 to 200 nM; in experiment [3] it was above 50000 nM.
`CC[C@@H](CO)Nc1ncc(C(F)(F)F)c(-c2c[nH]c3c(P(C)(C)=O)cccc23)n1` [Compound 88, (S)-(3-(2-((1-hydroxybutan-2-yl)amino)-5-(trifluoromethyl)pyrimidin-4-yl)-1H-indole-7-yl)dimethylphosphine oxide]: the 50% inhibitory concentration (IC50) in experiment [1] is 20 to 200 nM; in experiment [2], below 20 nM; in experiment [3], above 50000 nM.
As to `C[C@@H](CO)Nc1ncc(C(F)(F)F)c(-c2c[nH]c3c(P(C)(C)=O)cc(F)cc23)n1` [Compound 158], the IC50 is below 20 nM in experiment [1], below 20 nM in experiment [2] and above 50000 nM in experiment [3].
Turning to `CP(C)(=O)c1cccc2c(-c3nc(N[C@H]4CC[C@@H]4O)ncc3C(F)(F)F)c[nH]c12` [Compound 154, (3-(2-(((1S,2S)-2-hydroxycyclobutyl)amino)-5-(trifluoromethyl)pyrimidin-4-yl)-1hydro-indole-7-yl)dimethylphosphine oxide], the 50% inhibitory concentration (IC50) in experiment [1] was below 20 nM; in experiment [2], below 20 nM; in experiment [3], 5000 to 50000 nM.
As for `CC(CO)CNc1ncc(C(F)(F)F)c(-c2c[nH]c3c(P(C)(C)=O)cccc23)n1` (single isomer, unassigned) [Compound 149], the IC50 is below 20 nM in experiment [1], 20 to 200 nM in experiment [2] and above 50000 nM in experiment [3].
The like results for `CP(C)(=O)c1cccc2c(-c3nc(NC4(CO)CC(F)(F)C4)ncc3C(F)(F)F)c[nH]c12` [Compound 96, (3-(2-((3,3-difluoro-1-(hydroxymethyl)cyclobutyl)amino)-5-(trifluoromethyl)pyrimidin-4-yl)-1H-indole-7-yl)dimethylphosphine oxide] were, in that order, below 20 nM, below 20 nM and above 50000 nM.
For `CP(C)(=O)c1cccc2c(-c3nc(NC45CC(O)(C4)C5)ncc3C(F)(F)F)c[nH]c12` [Compound 174, (3-(2-((3-hydroxybicyclo[1.1.1]pentan-1-yl)amino)-5-(trifluoromethyl)pyrimidin-4-yl)-1H-indole-7-yl)dimethylphosphine oxide], in that order: below 20 nM, below 20 nM and 200 to 5000 nM.
The like results for `CP(C)(=O)c1cccc2c(-c3nc(NC[C@H](F)CO)ncc3C(F)(F)F)c[nH]c12` [Compound 86, (S)-(3-(2-((2-fluoro-3-hydroxypropyl)amino)-5-(trifluoromethyl)pyrimidin-4-yl)-1H-indole-7-yl)dimethylphosphine oxide] were, in that order, 20 to 200 nM, below 20 nM and above 50000 nM.
In the case of `CP(C)(=O)c1cccc2c(-c3nc(NCC(F)(F)CO)ncc3C(F)(F)F)c[nH]c12` [Compound 102, (3-(2-((2,2-difluoro-3-hydroxypropyl)amino)-5-(trifluoromethyl)pyrimidin-4-yl)-1H-indole-7-yl)dimethylphosphine oxide], the IC50 was below 20 nM in experiment [1], below 20 nM in experiment [2] and above 50000 nM in experiment [3].
On to `C[C@@H](CO)Nc1ncc(C#N)c(-c2c[nH]c3c(P(C)(C)=O)cccc23)n1` [Compound 179, (S)-4-(7-(dimethylphosphoryl)-1H-indole-3-yl)-2-((1-hydroxypropan-2-yl)amino)pyrimidine-5-carbonitrile], for which the IC50 in experiment [1] was 20 to 200 nM; in experiment [2] it was 20 to 200 nM; in experiment [3], 5000 to 50000 nM.
